Test system: 945468-187-T-J2-PDC spheroids viability
Assay: Anticancer human tumor 945468-187-T-J2-PDC patient-derived rectal carcinoma cell line growth inhibition [PI3K]
Conditions: spheroids with HUVEC and MSC; for IC50: curve of first compound; for viability, T/C: stronger effect = lower value; active = viability on the fitted dose curve at most 10% of control; inactive = the rest
Procedure, shortened: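 Complex 3D spheroids (cancer cells + endothelial HUVEC + mesenchymal stem cells); drug pairs of targeted agent x inavolisib/alpelisib/duvelisib/copanlisib; half-log series from ~Cmax, max 10 microM if Cmax unknown; endpoint viability.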

[1] = second compound 0.00316 µM, first compound 0.0316 µM
[2] = second compound 0.00316 µM, first compound 0.1 µM
[3] = second compound 0.00316 µM, first compound 0.316 µM
[4] = second compound 0.00316 µM, first compound 1 µM
[5] = second compound 0.00316 µM, first compound 3.16 µM
[6] = second compound 0.00316 µM, first compound 10 µM
[7] = second compound 0.01 µM, first compound 0.0316 µM
[8] = second compound 0.01 µM, first compound 0.1 µM
[9] = second compound 0.01 µM, first compound 0.316 µM
[10] = second compound 0.01 µM, first compound 1 µM
[11] = second compound 0.01 µM, first compound 3.16 µM
[12] = second compound 0.01 µM, first compound 10 µM
[13] = second compound 0.0316 µM, first compound 0.0316 µM
[14] = second compound 0.0316 µM, first compound 0.1 µM
[15] = second compound 0.0316 µM, first compound 0.316 µM
[16] = second compound 0.0316 µM, first compound 1 µM
[17] = second compound 0.0316 µM, first compound 3.16 µM
[18] = second compound 0.0316 µM, first compound 10 µM
[19] = second compound 0.1 µM, first compound 0.0316 µM
[20] = second compound 0.1 µM, first compound 0.1 µM
[21] = second compound 0.1 µM, first compound 0.316 µM
[22] = second compound 0.1 µM, first compound 1 µM
[23] = second compound 0.1 µM, first compound 3.16 µM
[24] = second compound 0.1 µM, first compound 10 µM
[25] = second compound 0.316 µM, first compound 0.0316 µM
[26] = second compound 0.316 µM, first compound 0.1 µM
[27] = second compound 0.316 µM, first compound 0.316 µM
[28] = second compound 0.316 µM, first compound 1 µM
[29] = second compound 0.316 µM, first compound 3.16 µM
[30] = second compound 0.316 µM, first compound 10 µM
[31] = second compound 1 µM, first compound 0.0316 µM
[32] = second compound 1 µM, first compound 0.1 µM
[33] = second compound 1 µM, first compound 0.316 µM
[34] = second compound 1 µM, first compound 1 µM
[35] = second compound 1 µM, first compound 3.16 µM
[36] = second compound 1 µM, first compound 10 µM
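Also: spheroids exposed to compounds for seven days before reading.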

C#Cc1c(F)ccc2cc(O)cc(-c3ncc4c(N5CC6CCC(C5)N6)nc(OCC56CCCN5CC(F)C6)nc4c3F)c12 (centres undefined) + COc1c(OCCCN2CCOCC2)ccc2c3n(c(=NC(=O)c4cnc(N)nc4)nc12)CCN3
< 0.0316 µM: IC50 (second compound 0.316 µM) | IC50 (second compound 1 µM)
inactive: viability, T/C [1] 124% | viability, T/C [2] 91.1% | viability, T/C [3] 121% | viability, T/C [4] 102% | viability, T/C [5] 121% | viability, T/C [6] 94.1% | viability, T/C [7] 107% | viability, T/C [8] 98.8% | viability, T/C [9] 104% | viability, T/C [10] 88.1% | viability, T/C [11] 81.1% | viability, T/C [12] 97% | viability, T/C [13] 79% | viability, T/C [14] 114% | viability, T/C [15] 94.2% | viability, T/C [16] 110% | viability, T/C [17] 99% | viability, T/C [18] 104% | viability, T/C [19] 70.2% | viability, T/C [20] 95% | viability, T/C [21] 79.2% | viability, T/C [22] 81.4% | viability, T/C [23] 83.4% | viability, T/C [24] 59.8% | viability, T/C [25] 44.6% | viability, T/C [26] 41.3% | viability, T/C [27] 45% | viability, T/C [28] 41.8% | viability, T/C [29] 33.1% | viability, T/C [30] 26.9% | viability, T/C [31] 18.7% | viability, T/C [32] 17.3% | viability, T/C [33] 18.1% | viability, T/C [34] 19.2% | viability, T/C [35] 19.1% | viability, T/C [36] 14.4%
> 10 µM: IC50 (second compound 0.00316 µM) | IC50 (second compound 0.01 µM) | IC50 (second compound 0.0316 µM) | IC50 (second compound 0.1 µM)

C=CC(=O)N1CCN(c2nc(=O)n(-c3c(C)ccnc3C(C)C)c3nc(-c4c(O)cccc4F)c(F)cc23)C(C)C1 (centres undefined) + COc1c(OCCCN2CCOCC2)ccc2c3n(c(=NC(=O)c4cnc(N)nc4)nc12)CCN3
> 10 µM: IC50 (second compound 0.00316 µM) | IC50 (second compound 0.01 µM) | IC50 (second compound 0.0316 µM) | IC50 (second compound 0.1 µM)
inactive: viability, T/C [1] 92.6% | viability, T/C [2] 99.4% | viability, T/C [3] 107% | viability, T/C [4] 98.4% | viability, T/C [5] 103% | viability, T/C [6] 120% | viability, T/C [7] 94.6% | viability, T/C [8] 100% | viability, T/C [9] 82.8% | viability, T/C [10] 96.1% | viability, T/C [11] 98% | viability, T/C [12] 117% | viability, T/C [13] 90.6% | viability, T/C [14] 90.1% | viability, T/C [15] 108% | viability, T/C [16] 108% | viability, T/C [17] 94.7% | viability, T/C [18] 97.3% | viability, T/C [19] 81.4% | viability, T/C [20] 98.1% | viability, T/C [21] 73.1% | viability, T/C [22] 85.6% | viability, T/C [23] 85% | viability, T/C [24] 93.2% | viability, T/C [25] 36.9% | viability, T/C [26] 37.9% | viability, T/C [27] 51.2% | viability, T/C [28] 46.7% | viability, T/C [29] 37.2% | viability, T/C [30] 48.5% | viability, T/C [31] 17.9% | viability, T/C [32] 21.1% | viability, T/C [33] 21.7% | viability, T/C [34] 20.7% | viability, T/C [35] 22.7% | viability, T/C [36] 20.9%
< 0.0316 µM: IC50 (second compound 0.316 µM) | IC50 (second compound 1 µM)

From PubChem BioAssay AID1963972 (Molecular Pharmacology Branch, DTP, NCI, 2024)
